Source: article PMC10429771, “Bioorthogonal activation of prodrugs, for the potential treatment of breast cancer, using the Staudinger reaction” (RSC Medicinal Chemistry, 2023)

Legend:
[1] = system: MCF-7 cells; assay: MTT assay, prodrug activation and anticancer activity in MCF-7 cells; assay type: cell-based, human; details: for IC50: Homo sapiens, MTT, mean ± SEM (n = 3)
Experimental: (§1) The in vitro prodrug activation and anticancer activity of compounds 10 and 12 was determined using the MTT assay. MCF-7 cells or L929 cells were incubated with 50 μM Ac4ManNAz-, 4-, and 5-containing RPMI medium or 50 μM Ac4ManNAz-, 4-, and 5-containing DMEM medium, respectively for 72 h at 37 °C CO2 incubator as described above. Then, the engineered and non-engineered MCF-7 cells or L929 cells were seeded on 96-well plates (4 × 10^4 cells per mL) or (1 × 10^5 cells per mL), respectively and incubated at 37 °C for 24 h. Cells were then treated with a range of concentration of both prodrugs 10 and 12 (0.001–10 μM) and incubated for 72 h. After incubation, the treatments-containing medium was removed and 20 μL of 0.5 mg mL^−1 MTT in PBS solution was added in each well for 4 h. The resulting formazan crystals were dissolved in 100 μL of DMSO after carefully removing the MTT solution. The absorbance was recorded at 570 nm by InfiniteF50 TECAN microplate reader. The cells without any treatment were used as the control. Assays were performed in three replicates, which the statistical mean and standard deviation were used to estimate the cell viability. IC50 (inhibitory concentration to induce 50% cell death) values were determined using GraphPad Prism 8.0.2 according to the fitted data.

[2] = system: L929 cells; assay: MTT assay, prodrug activation and cytotoxicity in L929 cells; assay type: cell-based, mouse; details: for IC50: Mus musculus, MTT, mean ± SEM (n = 3); for prodrug activation on L929 cells: L929 cells pre-treated with azido-sialic acid derivatives 4 and 5, 50 μM; for IC50 on L929 cells relative to MCF-7 cells: non-engineered cells, L929 IC50 higher than MCF-7 IC50
Experimental: as §1

[3] = Cell viability of L929 cells after azide-modified sugars (MTT); assay type: cell-based; details: mouse, L929 fibroblast cells, 50 μM sugar, no change compared to control
[4] = system: L929 cells; assay: Azide-reporter generation by Western blotting, L929; assay type: cell-based, mouse; details: 50 μM, 72 h; lysates reacted with phosphine-PEG3-biotin
Experimental: (§2) For azide generation analysis in breast cancer cells and mouse fibroblasts, MCF-7 cells were cultured in 5% fetal bovine serum and RPMI 1640 medium and L929 cells were cultured in 10% fetal bovine serum and DMEM medium at 37 °C in a 5% CO2 incubator.
To analyse the engineered azide groups in glycoproteins in vitro, 4 × 10^4 cell per mL of MCF-7 and 1 × 10^4 cell per mL of L929 cells were seeded into 6-well plates and incubated with 50 μM Ac4ManNAz-, 4-, and 5-containing medium for 72 h at 37 °C CO2 incubator, respectively. Cells were then washed twice with ice cold PBS and lysed using ice cold RIPA buffer (Thermo Fisher Scientific, UK) with 1% protease inhibitor cocktail. Lysates were centrifuged at 12 000 rpm for 10 min at 4 °C to remove cell debris. The total protein of each sample was quantified by DC assay (Bio-rad DC Protein Assay Kit, Bio-rad, UK). The lysates were then incubated with 0.5 μM phosphine-PEG3-biotin (Thermo Fisher Scientific, UK) for 12 h at room temperature. The proteins from each sample were mixed with 1× sodium dodecyl sulfate (SDS) gel-loading buffer (125 mol L^−1 Tris, pH 6.8, 5% glycerol, 2% SDS, 1% β-mercaptoethanol, and 0.006% bromophenol blue) and boiled for 5 min. Then, 20 μg of proteins was separated by 8% SDS – polyacrylamide gel electrophoresis and transferred onto PVDF membranes. The membranes were blocked for 1.5 h at room temperature in 0.5% bovine serum albumin (BSA) containing 1× TBST solution (10 mol L^−1 Tris, pH 7.4, 100 mol L^−1 NaCl, and 0.1% Tween 20). Then, the membranes were incubated with streptavidin-HRP (Cell Signalling Technology, UK) containing 1× TBST solution for overnight at 4 °C. Next day, the membranes were washed three times using 1× TBST and protein band was detected with an ECL system.

[5] = system: MCF-7 cells; assay: Azide-reporter generation by confocal microscopy (DBCO-Cy5 MFI), MCF-7; assay type: cell-based, human; details: breast cancer MCF-7 versus normal fibroblast L929
Experimental: as §2
(§3) For fluorescence quantification, 4 × 10^4 cell per mL of MCF-7 and 1 × 10^4 cell per mL of L929 cells were seeded into a 35 mm covered glass-bottom dishes and incubated with 50 μM Ac4ManNAz-, 4-, and 5-containing medium for 72 h at 37 °C CO2 incubator, respectively. Then to visualize the azide groups, the sugar-containing medium was removed and the cells were washed twice with PBS and further incubated with 20 μM dibenzylcyclooctyne-conjugated Cy5 (DBCO-Cy5)-containing fresh medium for 1 h at 37 °C. Then, the cells were washed twice with PBS and fixed with formaldehyde fixative for 10 min in dark conditions. After fixation, the cells were washed twice with PBS and mounted with 4,6-diamidino-2-phenylindole (DAPI) (5 μg mL^−1). The cells were observed using a confocal laser microscope (Nikon A1R Confocal with 405, 445, 488, 514, 561 and 640 nm lasers). The mean fluorescence intensity was analyzed using ImageJ software and the data were represented as absolute values.

[6] = system: L929 cells; assay: Azide-reporter generation by confocal microscopy (DBCO-Cy5 MFI), L929; assay type: cell-based, mouse; details: 50 μM, 72 h; DBCO-Cy5 20 μM 1 h
Experimental: as §2, §3

[7] = MCF7, 72 h, non-engineered MCF-7 cells, 72 h
[8] = L929, 72 h, non-engineered L929 cells, 72 h
[9] = MCF7, 4-engineered MCF-7 cells (50 μM 4, 72 h pre-treatment)
[10] = MCF7, 5-engineered MCF-7 cells (50 μM 5, 72 h pre-treatment)
[11] = MCF7, Ac4ManNAz-engineered MCF-7 cells (50 μM, 72 h pre-treatment)
[12] = L929, 4-engineered L929 cells (50 μM 4, 72 h pre-treatment)
[13] = L929, 5-engineered L929 cells (50 μM 5, 72 h pre-treatment)
[14] = L929, Ac4ManNAz-engineered L929 cells (50 μM, 72 h pre-treatment)

IC50 [1, 7] [µM]	SMILES	IC50 [2, 8] [µM]	IC50 [1, 9] [µM]	IC50 [1, 10] [µM]	IC50 [1, 11] [µM]	decrease in potency of prodrug versus doxorubicin ([1]; non-engineered MCF-7 cells, IC50 of prodrug 12 vs doxorubicin 11)	prodrug activation on L929 cells [2]	IC50 [2, 12] [µM]	IC50 [2, 13] [µM]	IC50 [2, 14] [µM]	IC50 on L929 cells relative to MCF-7 cells [2]	viability at 50 µM [3] [%]	azide incorporation in L929 cells (Western blotting) [4]	higher azide expression on MCF-7 cells versus L929 cells [5] [fold]	fluorescence in L929 cells (confocal) [6]
0.2 ± 0.03	COc1cccc2c1C(=O)c1c(O)c3c(c(O)c1C2=O)C[C@@](O)(C(=O)CO)C[C@@H]3O[C@H]1C[C@H](N)[C@H](O)[C@H](C)O1 [Doxorubicin 11, doxorubicin, reference compound]	2.04 ± 0.009	–	–	–	–	–	–	–	–	–	–	–	–	–
4.6 ± 0.19	COc1cccc2c1C(=O)c1c(O)c3c(c(O)c1C2=O)C[C@@](O)(C(=O)CO)C[C@@H]3OC1C[C@@H](NC(=O)c2ccccc2P(c2ccccc2)c2ccccc2)[C@@H](O)[C@@H](C)O1 (stereo partly drawn) [Dox-prodrug 12, 2-(Diphenylphosphino)-N-((2R,3R,4R)-3-hydroxy-2-methyl-6-(((1S,3S)-3,5,12-trihydroxy-3-(2-hydroxyacetyl)-10-methoxy-6,11-dioxo-1,2,3,4,6,11-hexahydrotetracen-1-yl)oxy)tetrahydro-2H-pyran-4-yl)benzamide]	11.3 ± 0.23	0.5 ± 0.03	1.6 ± 0.09	0.2 ± 0.01	more than 20 fold	No activation	11.2 ± 1.04	10.7 ± 0.22	7.7 ± 0.26	approximately 2 fold	–	–	–	–
–	CC(=O)N[C@H]1[C@H]([C@H](OC(C)=O)[C@@H](CN=[N+]=[N-])OC(C)=O)O[C@@](OC(C)=O)(C(=O)O)C[C@@H]1OC(C)=O [Compound 5, 9-Azido-5-acetamido-2,4,7,8-tetracetyl-3,5,9-trideoxy-β-D-glycero-D-galacto-2-nonulosonic acid]	–	–	–	–	–	–	–	–	–	–	122 ± 5.5	did not show any azide-reporter generation	~17	did not show any fluorescence
–	CC(=O)N[C@H]1[C@H]([C@H](O)[C@H](O)CN=[N+]=[N-])OC(O)(C(=O)O)C[C@@H]1O (stereo in doubt) [Compound 4, 9-Azido-5-acetamido-3,5,9-trideoxy-β-D-glycero-D-galacto-2-nonulosonic acid]	–	–	–	–	–	–	–	–	–	–	92.4 ± 1.6	did not show any azide-reporter generation	~17	did not show any fluorescence
–	CC(=O)OC[C@H]1OC(OC(C)=O)[C@@H](NC(=O)CN=[N+]=[N-])[C@@H](OC(C)=O)[C@@H]1OC(C)=O (stereo partly drawn) [Ac4ManNAz, Tetra-O-acetyl azidomannosamine, reference compound]	–	–	–	–	–	–	–	–	–	–	97.5 ± 5.2	caused the azide incorporation	–	–

SMILES	IC50 [1, 7] [µM]	IC50 [2, 8] [µM]	IC50 [1, 9] [µM]	IC50 [1, 10] [µM]	IC50 [1, 11] [µM]	decrease in potency of prodrug versus doxorubicin ([1]; non-engineered MCF-7 cells, IC50 of prodrug 12 vs doxorubicin 11)	prodrug activation on L929 cells [2]	IC50 [2, 12] [µM]	IC50 [2, 13] [µM]	IC50 [2, 14] [µM]	IC50 on L929 cells relative to MCF-7 cells [2]	viability at 50 µM [3] [%]	azide incorporation in L929 cells (Western blotting) [4]	higher azide expression on MCF-7 cells versus L929 cells [5] [fold]	fluorescence in L929 cells (confocal) [6]
O=C(Nc1ccc(N(CCCl)CCCl)cc1)c1ccccc1P(c1ccccc1)c1ccccc1 [N-mustard prodrug 10, N-(4-(Bis(2-chloroethyl)amino)phenyl)-2-(diphenylphosphaneyl)benzamide]	20.8 ± 1.27	31.4 ± 0.44	2.1 ± 1.11	9.3 ± 0.63	0.6 ± 0.08	–	No activation	29.9 ± 0.69	29.7 ± 1.2	21.1 ± 0.58	approximately 2 fold	–	–	–	–
